The record followed here is patent publication US20250319292A1, “MICRONEEDLES AND METHODS FOR TREATING THE SKIN” (THE BRIGHAM AND WOMEN'S HOSPITAL, INC., priority 2021, published 2025).

One data set has as its system THP-1 cells. Put plainly: Cytotoxicity studies of digestion media (TCEP). Type of data set: cell-based. The conditions noted are these: TCEP 0.1 mM to 100 mM, 10 minutes. On the procedure:
Human monocyte THP-1 cells (ATTC) were maintained in RPMI 1640 supplemented with 10% FBS, 2 mM L-glutamine, 25 mM HEPES, 100 μg/mL Normocin™ (InvivoGen) and 100 U/mL penicillin and 100 μg/mL streptomycin. Cell lines were maintained in a humidified incubator at 37° C., 5% CO2.
THP-1 cells were incubated with different concentrations of digestion media (TCEP solution in supplemented media), ranging from 0.1 mM to 100 mM, for 10 minutes. Thereafter, digestion media was removed, and cells were stained using the LIVE/DEAD™ fixable Violet Dead Cell Stain Kit (Thermo Fisher Scientific, USA) following the manufacturer's guidelines. Dead cells were analyzed by flow cytometry using a BD LSRFortessa™ flow cytometer.

The subject of another data set is Tregs. Put plainly: CCL22-dependent trans-well migration assay. The conditions noted are these: 0, 10 and 100 ng/ml, 3 hours, CD3+ T cells. It counts as cell-based, C57BL/6 mice. On the procedure: Recruitment of Tregs as a function of CCL22 was assessed in a 24-well plate containing a 5 μm-pore polycarbonate Transwell® filter system (Costar Transwell® permeable support #3421). MNs loaded with incremental amounts of CCL22 ([…] and 100 ng) or equivalent dose of soluble CCL22 were added in the receiver wells and incubated at 37° C. for 1 hour. 5×10^5 CD3^+ T cells were magnetically isolated from C57BL/6 mice using mouse T cell isolation kit (EasySep™, #19851) and resuspended in full culture media and added to the top wells. Cells were then incubated at 37° C. and 5% CO2 for 3 hours. Cells in the receiver well were then harvested and stained with Fixed viability dye, anti-CD3, CD4, CD25, and Foxp3 antibodies and analyzed by flow cytometry.
Next, the biological activity of chemokines when loaded in the MNs was examined. Specifically, the ability of CCL22 to mediate Tregs recruitment when delivered using the MN platform through a trans-well migration assay was studied. Briefly, ranging concentrations of CCL22, either MN-doped or soluble, were incubated with CD3^+ T cells, and the number of migrated Tregs was analyzed after 3 hours of incubation by flow cytometry. […] This can stem from the maintenance of a higher gradient of CCL22 when released from the MNs compared to soluble CCL22 (FIG. 3C).

As to `O=C(O)CCP(CCC(=O)O)CCC(=O)O` [TCEP, tris (2-carboxyethyl) phosphine], the cell viability result with THP-1 cells was “highly biocompatible and did not affect cell viability”.

B1: soluble CCL22: C-C motif chemokine 22 added in solution, from PeproTech (protein, UniProt O00626 25-93, looked up)
C-C motif chemokine 22: GPYGANMEDSVCCRDYVRYRLPLRVVKHFYWTSDSCPRPGVVLLTFRDKEICADPRVPWVKMILNKLSQ
On to B1, for which, in the data set on Tregs, the “Tregs migration as a function of CCL22 concentration” value is listed as “dose-dependent increase of Tregs migration”.
